Reference: patent US8697739B2, “Bicyclic acetyl-CoA carboxylase inhibitors and uses thereof” (Novartis AG, priority 2010, dated 2014)

Legend:
[1] = target: T1, human acetyl-CoA carboxylase 2 (ACC2) (Homo sapiens, UniProt O00763); experiment: Acetyl-CoA carboxylase enzyme assay (malonyl-CoA formation by LC/MS/MS); format: biochemical; conditions: recombinant human ACC2 (aa 144-2458); read-out: IC50 ACC2
T1 construct: The cDNA encoding amino acids 144 to 2458 of human acetyl-CoA carboxylase 2; made in house; host or cells: Sf9 insect cells (baculovirus, pFastBac1)
T1 sequence (O00763 144-2458): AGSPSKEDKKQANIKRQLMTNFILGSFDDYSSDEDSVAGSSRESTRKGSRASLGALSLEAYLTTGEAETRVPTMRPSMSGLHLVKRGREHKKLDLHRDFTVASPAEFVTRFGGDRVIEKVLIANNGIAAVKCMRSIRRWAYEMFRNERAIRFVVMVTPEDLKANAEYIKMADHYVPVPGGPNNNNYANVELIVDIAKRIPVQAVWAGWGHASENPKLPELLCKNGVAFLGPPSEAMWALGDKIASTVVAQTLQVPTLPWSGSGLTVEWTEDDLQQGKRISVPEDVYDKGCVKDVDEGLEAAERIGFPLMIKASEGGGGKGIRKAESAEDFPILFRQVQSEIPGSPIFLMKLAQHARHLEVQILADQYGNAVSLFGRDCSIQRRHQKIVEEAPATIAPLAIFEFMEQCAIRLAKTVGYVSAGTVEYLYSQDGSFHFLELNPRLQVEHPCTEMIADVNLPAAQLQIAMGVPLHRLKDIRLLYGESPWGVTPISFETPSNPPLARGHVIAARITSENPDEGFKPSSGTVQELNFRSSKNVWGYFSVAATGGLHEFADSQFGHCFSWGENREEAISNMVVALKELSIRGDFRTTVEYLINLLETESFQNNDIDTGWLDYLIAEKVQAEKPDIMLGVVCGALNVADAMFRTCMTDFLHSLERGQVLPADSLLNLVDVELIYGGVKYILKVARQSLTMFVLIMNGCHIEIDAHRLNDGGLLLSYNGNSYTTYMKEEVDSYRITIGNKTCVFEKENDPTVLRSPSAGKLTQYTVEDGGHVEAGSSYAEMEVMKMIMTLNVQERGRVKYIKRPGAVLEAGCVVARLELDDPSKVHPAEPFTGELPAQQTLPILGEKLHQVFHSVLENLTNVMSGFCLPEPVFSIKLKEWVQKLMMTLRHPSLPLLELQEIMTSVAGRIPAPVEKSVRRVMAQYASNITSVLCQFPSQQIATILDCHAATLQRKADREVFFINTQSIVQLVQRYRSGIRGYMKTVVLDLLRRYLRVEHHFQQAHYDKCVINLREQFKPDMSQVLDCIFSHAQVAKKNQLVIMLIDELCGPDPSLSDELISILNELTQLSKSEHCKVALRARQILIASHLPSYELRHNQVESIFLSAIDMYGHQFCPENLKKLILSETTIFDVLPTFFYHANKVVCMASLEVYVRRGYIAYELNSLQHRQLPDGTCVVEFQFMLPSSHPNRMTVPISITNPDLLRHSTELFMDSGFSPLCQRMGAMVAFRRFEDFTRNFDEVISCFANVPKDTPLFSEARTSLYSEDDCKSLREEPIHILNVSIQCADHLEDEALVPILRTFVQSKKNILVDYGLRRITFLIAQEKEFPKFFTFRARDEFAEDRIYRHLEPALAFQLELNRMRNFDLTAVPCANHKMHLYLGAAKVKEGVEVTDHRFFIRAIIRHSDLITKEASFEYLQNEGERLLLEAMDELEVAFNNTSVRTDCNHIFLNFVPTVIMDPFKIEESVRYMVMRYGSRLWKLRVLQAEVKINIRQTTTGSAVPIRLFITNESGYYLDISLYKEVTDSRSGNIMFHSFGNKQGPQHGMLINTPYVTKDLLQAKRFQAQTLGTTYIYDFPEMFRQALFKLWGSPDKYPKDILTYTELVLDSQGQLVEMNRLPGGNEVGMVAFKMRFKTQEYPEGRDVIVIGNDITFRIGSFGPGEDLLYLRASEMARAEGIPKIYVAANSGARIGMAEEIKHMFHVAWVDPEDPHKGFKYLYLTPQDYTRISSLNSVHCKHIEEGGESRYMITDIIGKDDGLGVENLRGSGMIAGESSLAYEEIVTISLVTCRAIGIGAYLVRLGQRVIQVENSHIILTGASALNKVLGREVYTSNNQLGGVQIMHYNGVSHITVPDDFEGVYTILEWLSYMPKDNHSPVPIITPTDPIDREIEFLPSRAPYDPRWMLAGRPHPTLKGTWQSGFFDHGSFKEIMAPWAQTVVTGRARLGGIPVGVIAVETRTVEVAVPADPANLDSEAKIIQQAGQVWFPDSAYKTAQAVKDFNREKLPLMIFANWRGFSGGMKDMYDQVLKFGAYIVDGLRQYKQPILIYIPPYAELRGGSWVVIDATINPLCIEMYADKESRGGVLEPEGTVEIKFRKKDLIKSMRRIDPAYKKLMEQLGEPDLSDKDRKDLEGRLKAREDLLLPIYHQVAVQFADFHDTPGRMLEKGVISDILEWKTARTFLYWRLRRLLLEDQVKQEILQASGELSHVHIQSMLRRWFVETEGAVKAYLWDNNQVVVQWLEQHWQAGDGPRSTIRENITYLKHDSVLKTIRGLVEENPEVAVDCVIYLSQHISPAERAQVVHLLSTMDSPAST
Procedure, shortened: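 Malonyl-CoA formation was read by LC/MS/MS MRM against a [13C3]-malonyl-CoA internal standard, after acetic acid quench. The enzyme was baculovirus/Sf9-expressed human ACC2 residues 144–2458, given 15 minutes room-temperature compound preincubation in HEPES pH 7.5 buffer with MgCl2, citrate and DTT. Substrate solution held 50 μM acetyl-CoA, 120 μM ATP and 2 mM KHCO3.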

[2] = system: HCVcc genotype 2a (JFH-1 strain) virus; experiment: HCV assay: JFH-1 rLuc infection of Huh 7.5 cells, renilla luciferase readout; format: cell-based; conditions: Hepatitis C virus, Huh7.5; JFH-1 rLuc virus, MOI=0.01, Huh 7.5 cells, 72 hours, luciferase activity reduced by 50%
Procedure: (§1) The effect of compounds on HCV infection was determined in vitro using cell cultured (HCVcc) genotype 2a (JFH-1 strain) virus. A renilla luciferase reporter gene was inserted in the viral genome, the expression of which was under the control of HCV 5′UTR (JFH-1^rLuc). Thus, the inhibition of HCV infection or replication can be indirectly measured by the reduction of luciferase activity in the cells. A specifically adapted hepatoma cell line, Huh 7.5, which allowed higher infectivity of HCV in vitro, was cultured in Dulbecco's modified Eagle's medium (DMEM) supplemented with 2 mM L-glutamine, 0.1 mM non-essential amino acids and 10% heat-inactivated fetal bovine serum. The cells were infected with JFH-1^rLuc virus at an MOI=0.01 and were treated at the same time with serially diluted compounds. After 72 hours, luciferase activities in compound-treated cells were measured using the Renilla Luciferase Assay System (Promega) and were compared to those in untreated control cells. Concentration-dependent inhibition curves were generated, from which EC50 values, the concentrations of compounds at which luciferase activities were reduced by 50% relative to untreated control, were calculated. In parallel, cytotoxicity of compounds was determine by measuring the viability of compound-treated cells using CellTiter 96® AQueous One Solution Cell Proliferation Assay (Promega). CC50 represented the concentration of the compound at which cell viability was reduced by 50% compared to untreated control.

in vitro = format: cell-based; conditions: human
Procedure: as §1

In the case of CC(C)[C@H]1COCCN1C(=O)[C@H]1CC[C@H](NS(=O)(=O)c2ccc3c(Cl)c(-c4ccc(CCC(=O)O)cc4)n(C)c3c2)CC1 [Example 25, 3-(4-(3-chloro-6-(N-((1S,4r)-4-((S)-3-isopropylmorpholine-4-carbonyl)cyclohexyl)sulfamoyl)-1-methyl-H-indol-2-yl)phenyl)propanoic acid], the IC50 [1] is reported as < 0.01 µM, the EC50 [2] is reported as 0.68 µM and the CC50 at 72 h (in vitro) is reported as > 33 µM.
For Cn1c(-c2ccc(CCC(=O)O)cc2)c(Cl)c2ccc(S(=O)(=O)N[C@H]3CC[C@H](C(=O)N4CCOC[C@@H]4C4CC4)CC3)cc21 [Example 28, 3-(4-(3-chloro-6-(N-((1S,4r)-4-((S)-3-cyclopropylmorpholine-4-carbonyl)cyclohexyl)sulfamoyl)-1-methyl-1H-indol-2-yl)phenyl)propanoic acid], the IC50 [1] was < 0.01 µM, the EC50 [2] was 0.51 µM and the CC50 at 72 h (in vitro) was > 33 µM.
With Cn1c(-c2ccccc2)cc2ccc(S(=O)(=O)N[C@H]3CC[C@H](C(=O)N4CC5(CN(C(=O)OC(C)(C)C)C5)C4)CC3)cc21 [Example 483, tert-butyl 6-((1r,4r)-4-(1-methyl-2-phenyl-1H-indole-6-sulfonamido)cyclohexanecarbonyl)-2,6-diazaspiro[3.3]heptane-2-carboxylate] the IC50 [1] was 0.075 µM, the EC50 [2] was 0.04 µM and the CC50 at 72 h (in vitro) was 16 µM.
In the case of Cn1c(-c2ccccc2)cc2ccc(S(=O)(=O)N[C@H]3CC[C@H](C(=O)N4CCN(c5ncccn5)CC4)CC3)cc21 [Example 431, 1-methyl-2-phenyl-N-((1r,4r)-4-(4-(pyrimidin-2-yl)piperazine-1-carbonyl)cyclohexyl)-1H-indole-6-sulfonamide], the IC50 [1] is reported as 0.13 µM, the EC50 [2] is reported as 2.23 µM and the CC50 at 72 h (in vitro) is reported as > 33 µM.
With COCCc1ccc(-c2[nH]c3cc(S(=O)(=O)N[C@H]4CC[C@H](C(=O)N5CCOC[C@@H]5C)CC4)ccc3c2Cl)cc1 [Example 31, 3-chloro-2-(4-(2-methoxyethyl)phenyl)-N-((1S,4r)-4-((S)-3-methylmorpholine-4-carbonyl)cyclohexyl)-1H-indole-6-sulfonamide] the IC50 [1] was < 0.01 µM, the EC50 [2] was 0.14 µM and the CC50 at 72 h (in vitro) was 24 µM.
With CC(C)[C@H]1COCCN1C(=O)[C@H]1CC[C@H](NS(=O)(=O)c2ccc3cc(-c4ccc(CCC(=O)O)cc4)n(C)c3c2)CC1 [Example 29, 3-(4-(6-(N-((1S,4r)-4-((S)-3-isopropylmorpholine-4-carbonyl)cyclohexyl)sulfamoyl)-1-methyl-1H-indol-2-yl)phenyl)propanoic acid] the IC50 [1] was < 0.01 µM, the EC50 [2] was 2.42 µM and the CC50 at 72 h (in vitro) was > 33 µM.
With Cn1c(C2CC2)cc2ccc(S(=O)(=O)N[C@H]3CC[C@H](C(=O)N4CCOC[C@@H]4C4CC4)CC3)cc21 [Example 458, 2-cyclopropyl-N-((1S,4r)-4-((S)-3-cyclopropylmorpholine-4-carbonyl)cyclohexyl)-1-methyl-1H-indole-6-sulfonamide] the IC50 [1] was 0.035 µM, the EC50 [2] was 0.24 µM and the CC50 at 72 h (in vitro) was > 33 µM.
